Results published in patent publication US20210087565A1, “ANTISENSE ANTIBIOTICS AND BACTERIAL SECRETION BASED DELIVERY SYSTEM TO ELIMINATE DRUG-RESISTANT BACTERIA” (priority 2018, published 2021).

Experiments:
[1] = system: intracellular SL1344 S. typhimurium in HeLa cells; assay: Salmonella infection of HeLa cells and PNA treatment (T3SS-PNA or naked PNA); type: cell-based, Salmonella enterica serovar typhimurium; details: for reduction of intra-epithelial Salmonella CFU: PNA delivered via the T3SS, vs no treatment, p<0.05; for reduction of intra-epithelial Salmonella CFU / clearing of infection (in words): 10 μM, 18 hours; for GFP expressing Salmonella in images (in words): T3SS-PNA treatment, compared to no treatment or Naked-PNA treatment; for clearing of infection (in words): naked PNA added exogenously after infection, compared to no treatment
Procedure: FIG. 4. Establishing the bacterial Type III secretion system (T3SS) for PNA transport. (A) Schematic showing enhancement of PNA delivery into HeLa cells using the bacterial T3SS of Salmonella enterica serovar typhimurium (STm) for treatment of an intracellular infection of STm. HeLa cells were seeded and allowed to grow for 24 h. SL1344 GFP STm was added at a MOI of 10:1 and allowed to infect HeLa cells for 45 min following two separate conditions: (Top) No PNA is added during this time, termed here as Naked PNA treatment, (Bottom) PNA is added at the time of infection at t=0 to utilize the T3SS, termed here as T3SS-PNA treatment. The T3SS-PNAs enter Salmonella during 45 minutes of incubation due to transport enhanced by the cell penetrating peptides, followed by entry into host cells via T3SS encoding and PNA carrying STm. (Top and Bottom). After 45 minutes infected HeLa cells are washed and treated with media containing gentamicin for 75 minutes to kill extracellular bacteria. The cells are then incubated for 18 h with media containing gentamicin following the two separate conditions: (Top) PNA supplied after infection for Naked PNA treatment. (Bottom) No PNA is added after infection. Post 18 hours of treatment HeLa cells are fixed for imaging or lysed for Colony forming Unit (CFU) analysis. (B) Representative images of uninfected (Top left), and infected HeLa cells without treatment (Bottom left). Top (right) panels show representative images of infected HeLa cells following Naked-PNA treatment. Bottom (right) panels show representative images of infected HeLa cells following T3SS-PNA treatment. HeLa cells are stained with nucleic stain DAPI (blue), and membrane stain Phalloidin (pink), and green pixels represent intracellular SL1344 S. typhimurium fluorescing GFP (green). […] (C) Intracellular S. typhimurium load (CFU/mL) in presence or absence of treatment. Significant reduction in STm CFU in HeLa cells when PNA is delivered using T3SS.
For all cases, HeLa cells were infected at time t=0 with SL1344 for 45 minutes with a multiplicity of infection (MOI) of bacteria to HeLa cells of approximately 10:1. For the T3SS-PNA treatment method HeLa cells were co-incubated with SL1344 and either α-rpsD or α-lexA for 45 minutes, allowing the PNA to enter the Salmonella while simultaneously transporting the PNA-carrying Salmonella into the HeLa cells using the T3SS. […] Post-infection, the cells were washed and incubated with media containing gentamicin for a period of 75 minutes to remove any extracellular bacteria and/or PNA. For all treatments the media was then replaced with fresh gentamicin containing growth medium, with the naked PNA treatment condition also containing 10 μM PNA, and incubated an additional 18 (FIG. 4A). At the end of 18 hours, cultures were analyzed via imaging or measured by intra-epithelial colony forming units (CFU). […] The present inventors obtained similar results in an infection of mouse osteoblast cells (FIG. 11B).
Salmonella infection of HeLa cells and PNA treatment: For a single infection (FIG. 4), SL1344 cultures were inoculated from a single colony on solid media in to 1 mL of LB media and grown for 16 hours at 37° C. with shaking. Cultures were diluted 1:10 and regrown in LB prior to infection. Bacteria were washed thrice with PBS, optical density at 600 nm measured, and diluted to a multiplicity of infection (MOI) of 10 in Dulbecco PBS (DPBS). MOI is calculated based on an established optical density and colony forming unit (CFU) calibration, and the number of mammalian cells per well at the time of infection approximated based on their doubling time. Mammalian cells were washed thrice with Dulbecco's Phosphate-Buffered Saline (DPBS, Fisher Scientific) prior to infection for 45 minutes 37° C. with controlled humidity. […]

[2] = system: HeLa cells; assay: Cytotoxicity in HeLa cells (lactate dehydrogenase assay); type: cell-based, human; details: for lethality to human epithelial cells (in words): HeLa, range of concentrations
Procedure: FIG. 12. Cytotoxicity measurement of varying concentration of PNA in HeLa cells. HeLa cells were plated on tissue culture treated 96-well plates at 4,500 cells per well. Varying concentrations of α-lexA and α-nonsense were added exogenously after 24 hours of growth and incubated in growth conditions for 18 hours. Cytotoxicity was measured using a lactate dehydrogenase assay and absorbance read at 450 nm with a blank (growth media with lactate dehydrogenase assay) subtracted. […] Error bars are standard deviation.

[3] = system: SL1344; assay: Effect of 45-minute incubation with PNA on SL1344 viability; type: cell-based, Salmonella enterica serovar typhimurium; details: 10 μM, 45 minutes
Procedure: FIG. 13. Effect of 45-minute incubation with PNA treatment during infection. (A) Individual colonies of SL1344 were picked off of solid media and grown for 16 hours in luria broth supplemented with 30 μg/mL streptomycin, diluted 1:10, and regrown for 4 hours. After regrowth bacteria was diluted to a concentration equivalent to a […] multiplicity of infection of 200,000 cells/mL in 100 μL (conditions of HeLa cell infection after 24 hours growth). Cultures were suspended in phosphate buffered saline and treated with 10 μM of either α-lexA, α-rpsD, or plain phosphate buffered saline for 45 minutes before serial dilution, plated on solid media (40 μg/mL streptomycin), and incubated for 16 hours. Colony forming units were counted to enumerate percent infection with respect to no treatment. There is no significant difference (p>0.05) between α-lexA and α-rpsD at 45 minutes of treatment. […] Percent infection was then calculated in comparison to each replicates' no treatment. […]
Effect of PNA after 45 min of incubation during HeLa infection: SL1344 were cultured as described above and split 1:10 and regrown for 4 hours. […] Samples (10 μL) were taken at t=0 (before PNA addition) and t=45 min (after PNA treatment), and serially diluted, plated, and grown for 16 hours at 37° C. and CFU counted.

Row | Substance | reduction of intra-epithelial Salmonella CFU [1] | GFP expressing Salmonella in images (in words) [1] | clearing of infection (in words) [1] | concentration up to which no significant difference in cytotoxicity to negative control was seen ([2]; HeLa cells, 18 hours, lactate dehydrogenase assay, p>0.05) | lethality to human epithelial cells (in words) [2] | bacterial viability after co-incubation (in words) [3]
1 | α-lexA: 12-mer antisense PNA cGGAATGAAAGC (SEQ ID NO. 17) targeting lexA, conjugated to (KFF)3K cell penetrating peptide via AEEA-linker (antisense CGGAATGAAAGC; all peptide nucleic acid (PNA); (KFF)3K cell-penetrating peptide attached via AEEA linker) | ~69±8% | evident decrease in GFP expressing Salmonella | not effective in clearing an infection | up to 40 μM | not found to be lethal | not long enough for the PNA to decrease bacterial viability
2 | α-rpsD: 12-mer antisense PNA AGAAAATGGCAA (SEQ ID NO. 19) targeting rpsD, conjugated to (KFF)3K cell penetrating peptide via AEEA-linker (all peptide nucleic acid (PNA); (KFF)3K cell-penetrating peptide attached via AEEA linker) | ~82±13% | evident decrease in GFP expressing Salmonella | not effective in clearing an infection | – | not found to be lethal | not long enough for the PNA to decrease bacterial viability
